Marks after values point to notes of the source that are not given here. Ends that are not written are not given here.
Columns and labels:
[1] = system: 6xHis-tagged LC3B and 6xHis-tagged GABARAP; assay: Peptide array, preference GABARAP versus LC3B (absorbance ratio); assay type: binding, human; details: absorbance GABARAP/LC3B or LC3B/GABARAP, cut-off 1.5-fold; mean of n = 3; Figs 1A, EV1B and C
Description: A high number of autophagy receptors or adaptor structures have been reported, yet the basis for their selective interaction with individual members of the ATG8 family is not well understood. We speculated whether the LIR motif alone is able to confer selectivity towards a mATG8 subfamily and whether we could derive a subfamily consensus motif from analysis of known mATG8 interaction partners. To address this question, we screened an array of peptides (presented in Fig EV1A and described in Materials and Methods) with the LIR sequences of 30 known and validated autophagy receptors and adaptors (Table 1) against all six human mATG8s for binding (Figs 1A and EV1B and C). In brief, biotinylated peptides were immobilized on streptavidin‐coated 96‐well plates and incubated with His6‐tagged mATG8 proteins. After washing steps, peptide‐bound mATG8 was detected in an ELISA reader using anti‐His antibodies directly conjugated to HRP (horse radish peroxidase; Fig EV1A).
Dashed red line depicts 1.5‐fold change cut‐off.
Due to the wide range of affinities of various LIR sequences towards the LC3/GABARAP proteins, we have normalized our results by dividing values for LC3B interaction by the corresponding value for interaction with GABARAP (Fig 1A, purple bars) and vice versa (Fig 1A, blue bars) to highlight the potential subfamily selectivity of each LIR sequence tested. We classified ratios greater than 1.5‐fold as an indication of a preferential interaction towards that particular LC3 or GABARAP family member. […] Using this information, we generated a sequence plot (Fig 1B) to ascertain whether there were any common sequence features of the GABARAP‐specific interaction proteins. In addition to the 12 sequences identified in this experiment as preferential GABARAP subfamily interactors, we also included known GABARAP interactors that were not included in our screen (ALFY and KBTBD7). […] The previously identified PLEKHM1‐LIR 19 has a high degree of similarity to this sequence. […] However, it is unclear whether this is the case in vivo.
Biotinylated peptides (JPT, Germany) were immobilized on streptavidin‐coated 96‐well plates (#436014; Thermo Scientific) in 100 μl PBS containing 0.1% Tween‐20 (PT) and 1% BSA (PTB) overnight on a shaker at 8°C. After three washing steps with 200 μl PT, 100 μl of 1 μM HIS6‐tagged mATG fusion proteins isolated from E. coli in PTB was incubated with the immobilized peptides for 1 h at 8°C. After three washing steps with 200 μl PT, HIS6‐ATG8 bound to peptides was detected after 1‐h incubation with anti‐HIS‐HRP antibody (JP‐A00612; Genscript; 1:5,000 in 100 μl PTB) with the help of TMB substrate Reagent Set (BD OptEIA; 75 μl). The reaction (blue coloration) was stopped by addition of 60 μl 1 M H3PO4. Samples were analysed on a Synergy H1 ELISA reader from BioTek at 450 nm.

LC3B = biological target: T1, LC3B (Homo sapiens, UniProt Q9GZQ8); assay: ITC titration of PLEKHM1-LIR peptides into LC3B; assay type: binding; details: for ΔH: VP-ITC, one-site model, 0.4 mM peptide into 0.020 mM protein, 50 mM Na2HPO4, 100 mM NaCl
T1 construct: modified Ub-leader (ubiquitin fusion leader) (N); made in house; host or cells: E. coli NEB T7 Express
Procedure: (§1) The genes for the truncated LC3A^2–121, LC3C^8–125, GABARAP^2–117 and GABARAP‐L1^2–117 proteins were cloned into pET30ΔSE vector between the BamHI and XhoI sites using previously established protocols 38. The chimeric constructs of the PLEKHM1‐LIR attached to the LC3A, GABARAP and GABARAP‐L1 proteins were prepared by inserting the oligonucleotide sequence corresponding to the PLEKHM1‐LIR peptide (P^629[…]^638) and glycine–serine linker into the BamHI site of the pET30ΔSE vector, placing the PLEKHM1‐LIR at the N‐terminal of the mature chimeric protein (similar to 31, 38). For the expression of human LC3 and GABARAP proteins for ITC and NMR experiments, plasmids with appropriate modified Ub‐leaders in pET vectors were used 39. Gene, encoding PLEKHM1‐LIR peptide, was ordered as synthetic oligonucleotides (Eurofins Genomics GmbH) and cloned into the pET39_Ub63_ vector 39 by NcoI–BamHI restriction sites. After TEV cleavage, the resulting peptide has the amino acid sequence GAMG‐P^629[…]^642, where the first four residues (GAMG) are the cloning artefact.
(§2) The chimeric constructs were expressed as a His‐tag fusion protein in E. coli BL21(DE3) cells. The cells were induced with 0.3 mM IPTG at OD600 0.6 for 16 h at 26°C. The cell pellets were lysed using mechanical sonication in lysis buffer (20 mM Tris–HCl pH 9.0, 100 mM NaCl, 10 mM imidazole, supplemented with 0.1% Triton X‐100). The proteins were purified using Ni‐NTA beads (GE Healthcare) and the His‐tag was cleaved using thrombin (Invitrogen) at room temperature for 16 h. The last step was gel filtration chromatography using a Superdex S200/300 GL column (GE Healthcare). The proteins were concentrated using spin concentrators (Vivaspin). For ITC and NMR studies, the non‐labelled and stable isotopes labelled LC3 and GABARAP proteins were obtained based on the protocols described elsewhere 30, 39. Here, E. coli NEB T7 Express culture transformed with corresponding plasmids were grown till OD600 nm = 1.0 and protein expression was induced with 0.2 mM IPTG. The cultures were incubated at 25°C for 8–12 h before cell harvesting. Isolation and purification procedures were similar to those reported in Ref. 22, 40. Before experiments, all proteins and peptides were equilibrated with a buffer containing 50 mM Na2HPO4, 100 mM NaCl at pH 7.0, and supplied with 5 mM protease inhibitor cocktail.
(§3) The protocol for preparation of non‐labelled and ^13C,^15N‐labelled PLEKHM1‐LIR peptide was slightly modified to achieve highest yield of the peptide. The 50 ml M9 culture was inoculated with NEB T7 cell transformed with pET39_Ub63‐PLEKHM1‐LIR plasmid and grown overnight at 37°. The collected cells were resuspended in 2 l of either LB or M9 media contained 1.5 g ^15N‐labelled NH4Cl and 3.0 g of ^13C‐labelled glucose. The cultures were grown at 37° till A(600 nm) = 0.9 and supplied with 1 mM of IPTG to induce Ub63‐PLEKHM1‐LIR overexpression (3 h at 37°). After that cells were harvested by centrifugation, re‐suspended in buffer contained 50 mM Tris–HCl pH = 7.9, 200 mM NaCl, 5% glycerol, 0.1 mg/ml DNase A and 4 mM protease inhibitor cocktail. After cell lysis by French press, debris was removed by centrifugation and clear supernatant was applied onto the column contained Ni‐NTA Sepharose equilibrated with the loading buffer (50 mM Tris–HCl pH = 7.9, 250 mM NaCl, 1% glycerol and 20 mM imidazole). Elution was performed with 400 mM imidazole in the same buffer. An aliquot of pure Ub63‐PLEKHM1‐LIR fractions was further purified by gel filtration on Superdex75 26 × 60 column for control ITC and analytical size exclusion chromatography experiments, remaining fusion protein was processed with the TEV‐protease and PLEKHM1‐LIR peptide was purified to 95% purity by reverse Ni‐NTA chromatography and followed gel filtration on Superdex75 26 × 60 column. Peak maximum of peptide was detected at […] (void volume 115 ml). Pure peptide was concentrated in Amicon concentrators with cut‐off of 3 kDa (> 95% retention). […]

GABARAP = biological target: T2, GABARAP (Homo sapiens, UniProt O95166); assay: ITC titration of PLEKHM1-LIR peptides into GABARAP; assay type: binding; details: for ΔH: VP-ITC, one-site model, 0.4 mM peptide into 0.020 mM protein, 50 mM Na2HPO4, 100 mM NaCl
T2 construct: modified Ub-leader (ubiquitin fusion leader) (N); made in house; host or cells: E. coli NEB T7 Express
Procedure: as §1, §2, §3

LC3 and GABARAP families = details: cited from earlier work
Description: However, despite the ever‐increasing number of LC3/GABARAP interaction partners identified and perhaps the over‐reliance on LC3B as the main marker of autophagosomes, there is now emerging distinct roles of each LC3 and GABARAP subfamily. For example, both LC3 and GABARAP families are essential for autophagy flux 29; however, LC3s were reported to be involved in phagophore extension and GABARAPs required for autophagosome closure 29. Moreover, GABARAP can activate ULK1 complex to initiate autophagy, irrespective of its conjugation status 28. Indeed, this is also reflected in C. elegans homolog ...

[2] = weak interaction: N fixed to 1 upon fitting

T2 sequence (O95166 whole entry, the tested form may be a part): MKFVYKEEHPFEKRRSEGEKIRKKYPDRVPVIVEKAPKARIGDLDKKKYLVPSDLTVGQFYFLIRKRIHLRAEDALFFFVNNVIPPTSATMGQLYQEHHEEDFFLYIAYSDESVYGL

| Sequence | preference GABARAP versus LC3B [1] | ΔH (LC3B; ITC, 25°C, pH 7.0) | ΔG (LC3B; ITC, 25°C, pH 7.0) | ΔS (LC3B; ITC, 25°C, pH 7.0) | −T × ΔS (LC3B; ITC, 25°C, pH 7.0) | N (number of binding sites) (LC3B; [2]) | ΔH (GABARAP; ITC, 25°C, pH 7.0) | ΔG (GABARAP; ITC, 25°C, pH 7.0) | ΔS (GABARAP; ITC, 25°C, pH 7.0) | −T × ΔS (GABARAP; ITC, 25°C, pH 7.0) | N (number of binding sites) (GABARAP; [2]) | KA (LC3B; ITC, 25°C, pH 7.0) | N (number of binding sites) (LC3B; ITC, 25°C, pH 7.0) | KA (GABARAP; ITC, 25°C, pH 7.0) | N (number of binding sites) (GABARAP; ITC, 25°C, pH 7.0) | subfamily specificity (LC3 and GABARAP families) |
| --- | --- | --- | --- | --- | --- | --- | --- | --- | --- | --- | --- | --- | --- | --- | --- | --- |
| ESDWVAVRP [JMY, LIR peptide 10–18] | strong preference for GABARAP versus LC3B |  |  |  |  |  |  |  |  |  |  |  |  |  |  |  |
| GAMGPQQEDEAVNVQYPD [PLEKHM1‐LIR W635A] |  | -0.8 ± 0.1 kcal/mol | -5.44 kcal/mol | +15.4 cal mol^−1 K^−1 | -4.59 kcal/mol | 1 ^a | -1.1 ± 0.1 kcal/mol | -5.40 kcal/mol | +14.4 cal mol^−1 K^−1 | -4.29 kcal/mol | 1 ^a |  |  |  |  |  |
| GAMGPQQEDEWCILQYPD [PLEKHM1‐LIR VNV‐CIL] |  | -7.9 ± 0.1 kcal/mol | -8.84 kcal/mol | +3.30 cal mol^−1 K^−1 | -0.98 kcal/mol |  | -9.2 ± 0.1 kcal/mol | -9.62 kcal/mol | +1.49 cal mol^−1 K^−1 | -0.44 kcal/mol |  | 3.03 ± 0.27 ×10^6 M^−1 | 1.06 ± 0.01 | 11.3 ± 0.38 ×10^6 M^−1 | 1.07 ± 0.01 |  |
| GAMGPQQEDEWGNVQYPD [PLEKHM1‐LIR V636G] |  | -1.7 ± 0.1 kcal/mol | -5.42 kcal/mol | +12.4 cal mol^−1 K^−1 | -3.70 kcal/mol | 1 ^a | -7.5 ± 0.1 kcal/mol | -5.83 kcal/mol | −5.66 cal mol^−1 K^−1 | +1.69 kcal mol^−1 | 1 ^a |  |  | 0.02 ± 0.00 ×10^6 M^−1 |  |  |
| GAMGPQQEDEWVGVQYPD [PLEKHM1‐LIR N637G] |  | -1.4 ± 0.1 kcal/mol | -5.87 kcal/mol | +15.0 cal mol^−1 K^−1 | -4.47 kcal/mol | 1 ^a | -6.7 ± 0.1 kcal/mol | -6.97 kcal/mol | +1.07 cal mol^−1 K^−1 | -0.32 kcal/mol |  | 0.02 ± 0.01 ×10^6 M^−1 |  | 0.13 ± 0.01 ×10^6 M^−1 | 1.17 ± 0.04 |  |
| SEDYIIILP [NBR1, LIR peptide 729–737] |  |  |  |  |  |  |  |  |  |  |  |  |  |  |  | GABARAP‐L1‐specific receptor |
| TDDFVLVPH [ULK2, LIR peptide 350–358] | clear specificity towards GABARAP versus LC3B |  |  |  |  |  |  |  |  |  |  |  |  |  |  |  |
| TDDFVMVPA [ULK1, LIR peptide 354–362] | clear specificity towards GABARAP versus LC3B |  |  |  |  |  |  |  |  |  |  |  |  |  |  |  |

— article PMC5538626, “Structural and functional analysis of the GABARAP interaction motif (GIM)” (EMBO Reports, 2017)
